# According to US7186703B2, “Derivatives of branched-chain lipophilic molecules and uses thereof” (D-Pharm Ltd., priority 2000, dated 2007):
# Values joined by “and” are separate entries in the source; they are usually repeats but may differ in a detail not shown here. Equal entries are not always repeated. Where two headings read alike, the source gives them in different places.
# Key:
# [1] = system: Neuro2a neuroblastoma cell line; experiment: MTT cytotoxicity, Neuro2a; assay type: cell-based, mouse; details: three days, read-out: EC50 (50% reduction in cell viability)
# Protocol: (§1) The cytotoxic activity of various phospho-derivatives of branched-chain fatty acids (DP-BFAs) was assayed in vitro in cell cultures that include normal and malignant cell types. The following cell systems were used: • Primary fibroblasts (human) • Normal bone marrow (BM) cells (mouse) • Primary bronchial epithelial cells (human, from Clonetics, cat. no. CC-2541) • Caco-2—colon cancer cell line (human, ATTC, HTB-37) • C6 glioma cell line (rat, ATCC, CRL-2199) • Neuro2a—neuroblastoma cell line (mouse, ATCC, CCL-131) • SKBR-3—breast cancer cell line (human, ATTC, HTB-30) • HL60—myeloid leukemia cell line (human, ATCC, CCL-240) • U937—myeloid leukemia cell line (human)
# (§2) Cells were seeded in a microtiter plate in MEM containing 2 mM L-glutamine, 100 units/ml penicillin, 100 ug/ml streptomycin and 10% FCS at 37° C. The cultured cells were incubated, during their linear growth phase in the absence (control group) or presence of various DP-BFAs as indicated. The final concentrations of the tested DP-BFAs ranged from 1.5 to 200 microMolars. At the end of the incubation period, which was five days for the bone marrow cells and three days for all the other cell lines, the cytotoxic effect of the added P-BFA on the cells was estimated by using the colorimetric MTT assay. The MTT assay (Mosmann (1983) J. Immunol Methods 65: 55–63) measures mitochondrial reductase activity and serves for quantitative assessment of cellular viability. Drug concentration that causes 50% reduction in cell viability in comparison to the control group, is defined as EC50. The EC50 values of the tested DP-BFA compounds were calculated from dose response curves established for each of the different assayed cell lines.
# (§3) Each EC50 value is an average of EC50 values derived from 1–5 independent experiments.
# [2] = system: U937 myeloid leukemia cell line; experiment: MTT cytotoxicity, U937; assay type: cell-based, human; details: U937, three days, read-out: EC50 (50% reduction in cell viability)
# Protocol: as §1, §2, §3
# C6 gliosarcoma tumor = experiment: Anti-tumor activity in C6 glioma-bearing rats, tumor volume (Example 27); assay type: in vivo, rat; details: for Tumor volume (mm^3) ± SE: control 8.1 ± 2.22; for anti-tumor effect on glioma growth (in words): rat, in vivo
# Description: The anti-tumor effects of various P-BFAs were studied in the in vivo model system described above in Example 17. Tested P-BFAs were intra-arterially administered at the concentrations previously determined as being effective in permeabilization of the BBB and BTB for Evans blue and Fluorescein extravasation. The experimental procedure for tumor inoculation, as described in Example 23, was followed.
# On Day 3–4 following inoculation of the C6 gliosarcoma cells, rat were cannulated through external carotid artery and the tested P-BFAs were infused over 30 seconds, as described in Example 17, except that in this experiment no markers were administered. The treated rats were maintained until Day 7–9, and then sacrificed. Coronal sections were obtained, stained by eosin-hematoxylin, and reviewed histologically to determine tumor volume. Animals treated with vehicle only serve as control. Standard error and Student's test for statistical significance were used.
# [3] = system: Primary bronchial epithelial cells; experiment: MTT cytotoxicity, normal primary epithelial cells; assay type: cell-based, human; details: Normal primary epithel, three days, read-out: EC50 (50% reduction in cell viability)
# Protocol: as §1, §2, §3
# [4] = system: SKBR-3 breast cancer cell line; experiment: MTT cytotoxicity, SKBR-3; assay type: cell-based, human; details: three days, read-out: EC50 (50% reduction in cell viability)
# Protocol: as §1, §2, §3
# C6 glioma cell line = experiment: MTT cytotoxicity, C6 glioma; assay type: cell-based, rat; details: three days, read-out: EC50 (50% reduction in cell viability)
# Protocol: as §1, §2, §3
# [5] = Octanol/saline solubility and partition coefficient, shake-flask technique; details: for LogPc (octanol-saline partition coefficient) / logD: octanol/physiological saline; for LogPc (octanol-saline partition coefficient) / Water mg/ml (solubility in aqueous solution): sodium salts; for Water mg/ml (solubility in aqueous solution): physiological saline as aqueous solution; for Octanol mg/ml (solubility in octanol): sodium salts of the branched fatty acids and their PO4 derivatives
# Protocol: The lipophilicity values of various derivatives of branched fatty acids were estimated by comparing the solubility of these compounds in organic versus aqueous solutions. Octanol and physiological saline were used, respectively, as the organic and aqueous solutions. The partition coefficient (Pc) value, i.e. the octanol/saline distribution was measured by the shake-flask technique.
# [6] = assay type: in vivo; details: rats, sodium salt; for LC (minimal concentration that caused death): i.a., viability monitored 24 hours
# Protocol: DP-BFA molecules were evaluated for safety and toxicity. Increasing doses of the tested compounds were administered intra-arterially (i.a.) into rats following the protocol described above in Example 17. Animal viability was monitored for 24 hours to evaluate lethal concentrations (LC). LC is defined as the minimal concentration that caused death.
# Safety index is defined as the ratio between the lethal dose (LC) and the minimal effective concentration (MEC), wherein MEC corresponds to a calculated concentration of the tested compound that elicits accumulation of three times the amount of Evans blue accumulated in control animals treated with vehicle only, i.e. total accumulation of 3 μg EB. The higher the LC/MEC ratio is, the higher the safety index.
# [7] = system: blood tumor barrier (BTB) of C6 glioma; experiment: BTB opening in C6 glioma-bearing rats, Evans blue accumulation in tumor; assay type: in vivo, Sprague Dawley rats; details: for EC50: C6 glioma-bearing rats; for BTB EB μg/g Tumor: concentrations around EC50 (Mannitol 25%), unilateral 30 s infusion; for Specificity Tumor/Non-tumor (T/NT): ratio of EB accumulated in tumor and non-tumor brain
# Protocol: (§4) In order to study the ability of DP-BFA compounds to modulate blood tumor barrier (BTB), a model system of C6 glioma-bearing rats, was employed.
# (§5) Sprague Dawley (SD) rats were inoculated with C6 gliosarcoma cells following the procedure described by Bartus et al. (Exp Neurol (1996); 142:14–28). A small burr-hole was made in the frontal scalp bone of the rat fixed in a stereotaxis apparatus. Using a Hamilton syringe, 10 μl or 5 μl of media, containing 2.5×10^5 C6 gliosarcoma cells were inoculated into the frontal cortex. Coordinates were 1 mm posterior of bregma, 2.5 mm—lateral, and 3 mm—depth. The needle remained in the place for 5 min. After removal of the needle, fascia and scalp were sutured. The rats were checked 6–8 days after inoculation, when tumors of sufficient size (20–60 mg) had developed. The tumor was weighed after F—Na visualization and dissection. Parts of the rats' brains were subject to histological examinations and monitored for Evans Blue and Fluorescein uptake into ipsilateral tumour tissue, peritumoural tissue and contralateral tissue.
# (§6) The bilateral tumor model system of C6 glioma-bearing rats described in Example 23 above was employed for screening of various derivatives of DP-BFA for their ability to permeabilize the blood brain barrier (BBB) in comparison to their effect on the blood tumor barrier (BTB). The experimental procedure described in Example 23 was followed except that the tumor-bearing rats were further treated with DP-BFA. The tested compounds, at concentrations around their EC50 values, were unilaterally infused into the external carotis artery over 30 seconds as described in Example 17. Animals treated with vehicle only serve as a control group. Permeabilization effect was quantitated by measuring accumulation of albumin bound Evans blue dye in tumor (T) versus non-tumor (NT) tissues.
# (§7) Specificity index is defined as the ratio between the levels of EB accumulated in tumor and those accumulated in non-tumor brain tissues (T/NT).
# [8] = system: blood brain barrier (BBB); experiment: BBB opening in C6 glioma-bearing rats, Evans blue accumulation in non-tumor brain; assay type: in vivo, Sprague Dawley rats; details: concentrations around EC50 (Mannitol 25%), unilateral 30 s infusion
# Protocol: as §4, §5, §6, §7
# [9] = octanol, organic solvent or mixture
# [10] = physiological saline, saline or isotonic
# [11] = Homo sapiens, Primary bronchial epithelial cell, 72 h
Compound,EC50 [1] [µM],EC50 [2] [µM],EC50 [4] [µM],LogPc (octanol-saline partition coefficient) [5],Water mg/ml (solubility in aqueous solution) [5] [mg/mL],Octanol mg/ml (solubility in octanol) [5] [mg/mL],LC (minimal concentration that caused death) [6] [µM],Safety LC/MEC [6],EC50 [7] [µM],BTB EB μg/g Tumor [7] [µg/g],Specificity Tumor/Non-tumor (T/NT) [7],BBB EB μg/g Non-tumor brain [8] [µg/g],"solubility [5, 9] [µg/mL]",logD [5],"solubility [5, 10] [µg/mL]","EC50 ([1]; Mus musculus, N2a, 72 h) [µM]","EC50 ([2]; Homo sapiens, U-937, 72 h) [µM]",EC50 ([7]; Rattus norvegicus) [µM],"EC50 [3, 11] [µM]","EC50 ([4]; Homo sapiens, SK-BR-3, 72 h) [µM]",also measured
"CCCCCCCCCCCCC(CCC)C(=O)OCCOCCOP(=O)([O-])[O-].[Na+].[Na+] (stereo not shown) [3,12-DEG-PO4Na2, 2-[2′-(2″-Propyltetradecanoyloxy)-ethoxy]ethyl Disodium Phosphate]",58,25,60,,,,,,,,,,,,,,,,,,Tumor volume (mm^3) ± SE (C6 gliosarcoma tumor; P-BFA 30 μM i.a.): 1.6 ± 0.4 mm^3; EC50 [3]: > 200 µM; EC50 (C6 glioma cell line): 38 µM
"CCCCCCCCCCCCC(CCC)C(=O)[O-].[Na+] (stereo not shown) [3,12-Na, reference compound]",76,68,130,0.99,>10,>20,40 ± 10,6.1,22 ± 4,44 ± 8,1.1 ± 0.3,43 ± 9,,,,,,,,,
"CCCCCCCCCCCCC(CCC)C(=O)OCCOCCOP(=O)([O-])OCC[N+](C)(C)C (stereo not shown) [3,12-DEG-PC, 2-(2′-Propyltetradecanoyloxy)ethoxyethylphosphocholine]",,,,,,,300 ± 60,20,,11,2,5,> 50000,0.73,> 10000,134,6,60,90,40,"Tumor volume (mm^3) ± SE (C6 gliosarcoma tumor; P-BFA 60 μM i.a.): 3.9 ± 1.0 mm^3; EC50 (C6 glioma cell line; Rattus norvegicus, 72 h): 95 µM"
"CCCCCCCCCCCCC(CCC)C(=O)OCCOP(=O)([O-])OCC[N+](C)(C)C (stereo not shown) [3,12-MEG-PC, 2-(2′-Propyltetradecanoyloxy)ethylphosphocholine]",,,,,,,15 ± 2,1.5,,12,2,6,> 10000,1.22,> 10000,70,9,20,94,50,Tumor volume (mm^3) ± SE (C6 gliosarcoma tumor; P-BFA 10 μM i.a.): 2.88 ± 0.6 mm^3; anti-tumor effect on glioma growth (in words) (C6 gliosarcoma tumor): significant anti-tumor activity
"2-(4′-Hexadecanoyloxy)ethoxyethyl phosphate [3,12-DEG-PO4]",,,,1.31,8,>5,30 ± 5,,7 ± 2,34 ± 8,22 and 22 ± 5,2.0 ± 0.2,,,,,,,,,anti-tumor effect on glioma growth (in words) (C6 gliosarcoma tumor): most pronounced anti-tumor effect
"CCCCCCCCCCCCC(CCC)OP(=O)([O-])OCC[N+](C)(C)C (stereo not shown) [3,12-PC, 4-Hexadecanyl phosphocholine]",,,62,,>10,>10,80 ± 16,3.5,52 ± 7,17 ± 2,1.8 ± 0.5,10 ± 2,,,,,,,,,Tumor volume (mm^3) ± SE (C6 gliosarcoma tumor; P-BFA 50 μM i.a.): 3.8 ± 0.8 mm^3
